The record followed here is ChEMBL document CHEMBL5532646, “Discovery of 4-(N-dithiobenzyl piperazine)-1,8-naphthalimide as a potent multi-target antitumor agent with good efficacy, limited toxicity, and low resistance” (Eur J Med Chem, 2024).

Data set [1] deals with T-24. The experiment in a line: Inhibition of cell proliferation of human T24 cells at 1 to 5 uM incubated for 7 days by colony formation assay. The class given is functional, cell-based. Conditions: dose 1-5 µM, time 7.0 day.
Data set [2] deals with T-24. The data set is described as follows: Induction of cell cycle arrest at G1/S phase in human T24 cells incubated for 24 hrs by flow cytometry. It is filed as functional, cell-based. Conditions: dose 2-8 µM. Background: In flow cytometry, cells or beads pass a laser one at a time.
The subject of data set [3] is T-24. The experiment in a line: Antiproliferative activity against human T24 cells incubated for 48 hrs by MTT assay. The class given is functional, cell-based. As to conditions: T-24, 48 h. In general terms: Tetrazolium dyes change colour on reduction, which living cells bring about.
For data set [4], the system named is T-24. The data set is described as follows: Induction of cell cycle arrest at G0/G1 phase in human T24 cells at 8 uM incubated for 24 hrs by flow cytometry (reference value: 75.31 %). It is filed as functional.
The subject of data set [5] is T-24. The experiment in a line: Induction of cell cycle arrest at G0/G1 phase in human T24 cells at 5 uM incubated for 24 hrs by flow cytometry (reference value: 75.31 %). The class given is functional.
Data set [6] concerns T-24. The data set is described as follows: Upregulation of ERK1/2 phosphorylation in human T24 cells incubated for 24 hrs by Western blot analysis. It is filed as functional, cell-based. Conditions: dose 2-8 µM.
The test system of data set [7] is T-24. The experiment in a line: Induction of autophagy in human T24 cells assessed as appearance of autophagic vesicles at 5 uM incubated for 48 hrs by TEM analysis. The class given is functional, cell-based.
In data set [8] the test system is T-24. The experiment in a line: Induction of cell cycle arrest at G2/M phase in human T24 cells at 8 uM incubated for 24 hrs by flow cytometry (reference value: 12.30 %). The class given is functional.
The test system of data set [9] is T-24. The experiment in a line: Induction of autophagy in human T24 cells at 5 uM incubated for 24 hrs by KEGG analysis. The class given is functional, cell-based.
Data set [10] deals with T-24. The data set is described as follows: Antitumor activity against human T24 cells assessed as effect on ferroptosis signaling pathway at 5 uM incubated for 24 hrs by TMT/iTRAQ analysis. The class given is functional, cell-based.
The nature of data set [11]: Toxicity in nude mouse model xenografted with human T24 cells assessed as pathological change in heart at 15 mg/kg, ip administered once every two days for 21 days. It is filed as organism-based, T-24. As to conditions: in vivo, 504 h, time 21 day. (A xenograft is tissue or cells of one species grown in another, often human tumour cells in immunodeficient mice.)
For data set [12], the system named is T-24. The experiment in a line: Induction of ferroptosis in human T24 cells assessed as reduction in mitochondrial cristae at 5 uM incubated for 24 hrs by TEM analysis. The class given is functional, cell-based.
Data set [13] has as its system T-24. The experiment in a line: Downregulation of AKT1 level in human T24 cells at 2 to 8 uM incubated for 24 hrs by Western blot analysis. It is filed as functional, cell-based. As to conditions: dose 2-8 µM.
The test system of data set [14] is T-24. The data set is described as follows: Induction of ferroptosis in human T24 cells assessed as decrease in GPX4 level at 5 uM incubated for 24 hrs by Western blot analysis. It is filed as functional, cell-based.
A short description of data set [15]: Toxicity in nude mouse model xenografted with human T24 cells assessed as pathological change in lung at 15 mg/kg, ip administered once every two days for 21 days. As to conditions: in vivo, 504 h, time 21 day. The class given is organism-based, T-24.
Data set [16] relates to T-24. The experiment in a line: Induction of ferroptosis in human T24 cells assessed as increase in FACL4 level at 5 uM incubated for 24 hrs by Western blot analysis. The class given is functional, cell-based.
Data set [17] deals with T-24. The experiment in a line: Anti-migratory activity against human T24 cells incubated upto 48 hrs by wound healing assay. It is filed as functional, cell-based.
In data set [18] the test system is T-24. The experiment in a line: Induction of cell cycle arrest at G2/M phase in human T24 cells at 2 uM incubated for 24 hrs by flow cytometry (reference value: 12.30 %). It is filed as functional.
The test system of data set [19] is T-24. The experiment in a line: Induction of ferroptosis in human T24 cells assessed as ruptured mitochondria at 5 uM incubated for 24 hrs by TEM analysis. The class given is functional, cell-based.
Data set [20] has as its system T-24. The experiment in a line: Antitumor activity against human T24 cells assessed as effect on MAPK signaling pathway at 5 uM incubated for 24 hrs by TMT/iTRAQ analysis. It is filed as functional, cell-based.
Data set [21] can be described thus: Toxicity in nude mouse model xenografted with human HepG2 cells assessed as pathological change in liver at 15 mg/kg, ip administered once every two days for 21 days. It is filed as organism-based. Conditions: in vivo, 504 h, time 21 day.
Data set [22] is described as follows: Toxicity in nude mouse model xenografted with human T24 cells assessed as pathological change in liver at 15 mg/kg, ip administered once every two days for 21 days. It is filed as organism-based, T-24. As to conditions: in vivo, 504 h, time 21 day.
The nature of data set [23]: Toxicity in nude mouse model xenografted with human HepG2 cells assessed as pathological change in heart at 15 mg/kg, ip administered once every two days for 21 days. It is filed as organism-based. Conditions: in vivo, 504 h, time 21 day.

The structures appear in SMILES notation. Active and inactive are the calls of the source. The rule behind the calls is not given here.

Usually IC50 stands for the midpoint of a concentration-inhibition curve. High values mean a need for much substance, low ones inhibition by little substance. On to `CN(C)CCN1C(=O)c2cccc3c(N4CCN(C(=S)SCc5ccccc5)CC4)ccc(c23)C1=O`, for which the inhibition entry in [1] was “Active”. Moreover, the Activity entry was “Dose-Dependent Effect” in data set [2]; 70.18% in [4]; 51.06% in data set [5]; “Dose-Dependent Effect” in data set [6]; 16.61% in data set [8]; “Non-Toxic” in data set [11]. The Activity result was “Non-Toxic” in [15]; “Dose-Dependent Effect” in data set [17]; 20.7% in data set [18]; “Non-Toxic” in data set [21]; “Non-Toxic” in data set [22]; “Non-Toxic” in data set [23]. This molecule displayed an IC50 in data set [3] of 3.03 µM. The result in data set [7], in data set [9], in [10], in data set [12], in data set [13] and in data set [14] was Active. The result in data set [16], in data set [19] and in [20] was Active.
